Data taken from US9322066B2, “Predictors for cancer treatment” (priority 2011, dated 2016).

Test system: relapsed or refractory, rituximab-naive or -sensitive follicular B-cell NHL
Experiment: Time to progression (TTP), Vc-R vs rituximab study, by biomarker
Format: in vivo, human
Set-up: TTP Median: unit not given here
Excerpt: Non-Hodgkin lymphoma (NHL) encompasses several unique malignant lymphoid disease entities that vary in clinical behavior, morphologic appearance, immunologic, and molecular phenotype. […] A randomized, open-label, active-controlled, multicenter, multinational, prospective study to compare the efficacy and safety of the combination of bortezomib and rituximab (Vc-R) to single-agent rituximab in subjects who have relapsed or refractory, rituximab-naive or -sensitive follicular B-cell NHL was performed.
Subjects were centrally randomized to Treatment Groups A (Vc-R) or B (rituximab) in a 1:1 ratio taking into account the following stratification factors: • Follicular Lymphoma International Prognostic Index (FLIPI) score (low [0 or 1 factor], intermediate [2 factors], high [≧3 factors]); • Prior rituximab therapy (yes, no); • Time since last dose of anti-lymphoma therapy (≦1 year, >1 year); • Region (United States/Canada, European Union, Rest of World).
For single-marker association analyses and pair-wise comparisons, a log rank test and Cox proportional hazard model was utilized for assessments of PFS, TTP, and OS between the treatment groups. Kaplan-Meier curves were utilized to estimate the distribution differences between groups in the time-to-event analyses. Comparison of the response rates between the treatment groups was conducted using the Fishers exact test. Single-marker association analyses were stratified by the covariates.
For pair-wise comparison analysis, biomarker pairs were formed by combinations of two markers. A log rank test was utilized for assessments of PFS, TTP, and OS between the treatment groups in the subpopulation defined by biomarker pairs. Kaplan-Meier curves were utilized to estimate the distribution differences between groups in the time-to-event analyses. Comparison of the response rates between the treatment groups was conducted using the Fishers exact test. Methods of Analysis for the multiple biomarker comparison models can be found in section 4.6.

[1] = 20S % NUCLEAR STAINING: 30-50, 2 Prior Lines of Therapy
[2] = 20S % NUCLEAR STAINING: 60-70, Male
[3] = 20S % POSITIVE CYTOPLASMIC SIGNAL: 0-20, >65 years old
[4] = 20S % POSITIVE CYTOPLASMIC SIGNAL: 95-100, Ann Arbor Stage IV
[5] = 20S INTENSITY CYTOPLASMIC SIGNAL: ≧3+, Male
[6] = CD68 OVERALL POSITIVE: 0-25, 2 Prior Lines of Therapy
[7] = CD68 OVERALL POSITIVE: 0-25, ≦1 year since last anti-lymphoma treatment
[8] = CD68 OVERALL POSITIVE: 26-50, Ann Arbor Stage IV
[9] = CD68 OVERALL POSITIVE: 26-50, High FLIPI Score
[10] = CD68 OVERALL POSITIVE: 26-50, No High Tumor Burden
[11] = CD68 OVERALL POSITIVE: 26-50, Rest of World
[12] = CD68 OVERALL POSITIVE: 26-50, ≦65 years old
[13] = CD68 POSITIVE FOLLICULAR: 0-25, >1 year since last anti-lymphoma treatment
[14] = CD68 POSITIVE FOLLICULAR: 26-50, 1 Prior Line of Therapy
[15] = CD68 POSITIVE FOLLICULAR: 26-50, High FLIPI Score
[16] = CD68 POSITIVE FOLLICULAR: 26-50, No High Tumor Burden
[17] = CD68 POSITIVE FOLLICULAR: 26-50, No Subgroup
[18] = CD68 POSITIVE FOLLICULAR: 26-50, White
[19] = CD68 POSITIVE FOLLICULAR: 26-50, ≦65 years old
[20] = CD68 POSITIVE FOLLICULAR: 51-75, Female
[21] = CD68 POSITIVE PERIFOLLICULAR: 0-25, 2 Prior Lines of Therapy
[22] = CD68 POSITIVE PERIFOLLICULAR: 26-50, Male
[23] = CD68 POSITIVE PERIFOLLICULAR: 26-50, Other
[24] = CD68 POSITIVE PERIFOLLICULAR: >75, 1 Prior Line of Therapy
[25] = CD68 POSITIVE PERIFOLLICULAR: >75, ≦65 years old
[26] = P27 % NUCLEI POSITIVE: 30-50, Ann Arbor Stage IV
[27] = P27 % NUCLEI POSITIVE: 60-70, Intermediate FLIPI Score
[28] = P27 SIGNAL INTENSITY: ≧2+, 4 Prior Lines of Therapy
[29] = P27 SIGNAL INTENSITY: ≧2+, Ann Arbor Stage IV
[30] = P27 SIGNAL INTENSITY: ≧2+, Male
[31] = P27 SIGNAL INTENSITY: ≧2+, ≦65 years old
[32] = P65 % NUCLEAR STAINING: 0, Male
[33] = P65 % NUCLEAR STAINING: 0, No Prior Rituximab Therapy
[34] = P65 % NUCLEAR STAINING: 0, ≦65 years old
[35] = P65 % POSITIVE CYTOPLASMIC SIGNAL: >90%, 1 Prior Line of Therapy
[36] = P65 % POSITIVE CYTOPLASMIC SIGNAL: >90%, >1 year since last anti-lymphoma treatment
[37] = P65 % POSITIVE CYTOPLASMIC SIGNAL: >90%, Ann Arbor Stage IV
[38] = P65 % POSITIVE CYTOPLASMIC SIGNAL: >90%, High FLIPI Score
[39] = P65 % POSITIVE CYTOPLASMIC SIGNAL: >90%, Male
[40] = P65 % POSITIVE CYTOPLASMIC SIGNAL: >90%, No Prior Rituximab Therapy
[41] = P65 % POSITIVE CYTOPLASMIC SIGNAL: >90%, No Subgroup
[42] = P65 % POSITIVE CYTOPLASMIC SIGNAL: >90%, White
[43] = P65 % POSITIVE CYTOPLASMIC SIGNAL: >90%, ≦65 years old
[44] = P65 % POSITIVE CYTOPLASMIC SIGNAL: ≦90%, Intermediate FLIPI Score
[45] = P65 INTENSITY CYTOPLASMIC SIGNAL: ≦1+, Ann Arbor Stage III
[46] = P65 INTENSITY CYTOPLASMIC SIGNAL: ≧2+, High FLIPI Score
[47] = P65 INTENSITY CYTOPLASMIC SIGNAL: ≧2+, ≦65 years old
[48] = PSMB1/A171S: G/G, Ann Arbor Stage IV, IRC review
[49] = PSMB1/A171S: G/G, High Tumor Burden, IRC review

rituximab
TTP Evt/N [1]: 11/13 | TTP Median [1]: 239 | TTP Evt/N [2]: 13/16 | TTP Median [2]: 212 | TTP Evt/N [3]: 5/6 | TTP Median [3]: 278 | TTP Evt/N [4]: 43/56 | TTP Median [4]: 278 | TTP Evt/N [5]: 20/27 | TTP Median [5]: 280 | TTP Evt/N [6]: 6/8 | TTP Median [6]: 142 | TTP Evt/N [7]: 11/18 | TTP Median [7]: 424 | TTP Evt/N [8]: 44/56 | TTP Median [8]: 277 | TTP Evt/N [9]: 36/45 | TTP Median [9]: 277 | TTP Evt/N [10]: 37/54 | TTP Median [10]: 357 | TTP Evt/N [11]: 40/51 | TTP Median [11]: 277 | TTP Evt/N [12]: 57/77 | TTP Median [12]: 278 | TTP Evt/N [13]: 23/34 | TTP Median [13]: 357 | TTP Evt/N [14]: 26/39 | TTP Median [14]: 349 | TTP Evt/N [15]: 31/37 | TTP Median [15]: 205 | TTP Evt/N [16]: 29/44 | TTP Median [16]: 351 | TTP Evt/N [17]: 65/91 | TTP Median [17]: 277 | TTP Evt/N [18]: 53/77 | TTP Median [18]: 334 | TTP Evt/N [19]: 52/67 | TTP Median [19]: 270 | TTP Evt/N (CD68 POSITIVE FOLLICULAR: 51-75, 3 Prior Lines of Therapy): 1/4 | TTP Evt/N [20]: 14/26 | TTP Median [20]: 708 | TTP Evt/N [21]: 7/8 | TTP Median [21]: 70 | TTP Evt/N [22]: 22/30 | TTP Median [22]: 239 | TTP Evt/N [23]: 4/4 | TTP Median [23]: 128 | TTP Evt/N [24]: 13/18 | TTP Median [24]: 275 | TTP Evt/N [25]: 17/23 | TTP Median [25]: 275 | TTP Evt/N [26]: 15/19 | TTP Median [26]: 278 | TTP Evt/N [27]: 6/13 | TTP Median [27]: 513 | TTP Evt/N [28]: 9/15 | TTP Median [28]: 348 | TTP Evt/N [29]: 64/85 | TTP Median [29]: 283 | TTP Evt/N [30]: 52/72 | TTP Median [30]: 280 | TTP Evt/N [31]: 104/153 | TTP Median [31]: 281 | TTP Evt/N [32]: 56/74 | TTP Median [32]: 280 | TTP Evt/N [33]: 77/102 | TTP Median [33]: 322 | TTP Evt/N [34]: 97/138 | TTP Median [34]: 287 | TTP Evt/N [35]: 56/89 | TTP Median [35]: 349 | TTP Evt/N [36]: 77/117 | TTP Median [36]: 357 | TTP Evt/N [37]: 67/87 | TTP Median [37]: 275 | TTP Evt/N [38]: 61/83 | TTP Median [38]: 239 | TTP Evt/N [39]: 54/72 | TTP Median [39]: 271 | TTP Evt/N [40]: 80/112 | TTP Median [40]: 345 | TTP Evt/N [41]: 139/204 | TTP Median [41]: 334 | TTP Evt/N [42]: 119/179 | TTP Median [42]: 345 | TTP Evt/N [43]: 108/154 | TTP Median [43]: 278 | TTP Evt/N [44]: 5/16 | TTP Median [44]: 567 | TTP Evt/N [45]: 7/11 | TTP Median [45]: 204 | TTP Evt/N [46]: 60/80 | TTP Median [46]: 275 | TTP Evt/N [47]: 105/152 | TTP Median [47]: 287 | TTP Evt/N [48]: 95/127 | TTP Median [48]: 278 | TTP Evt/N [49]: 110/147 | TTP Median [49]: 273 | TTP Evt/N (PSMB1/A171S: G/G, ≦65 years old, IRC review): 131/198
